The source of these data is publication PMC11836371, “Virtual fragment screening for DNA repair inhibitors in vast chemical space” (Nature Communications, 2025).

Data set [1] concerns NF-κB activation in HEK293T pGF NF-κB cells. The experiment in a line: TNF-α induced NF-κB activation assay. Format: cell-based. To be noted: for EC50: Homo sapiens, HEK-293T. The method, then: The inhibition of TNF-α induced NF-κB activation was measured in HEK293T cells transfected with the pGreenfire NF-κB plasmid. This is a plasmid that has NF-κB response elements (TRE) coupled to GFP and luciferase expression. When the NF-κB is activated by TNF-α, it binds to the TRE and induces GFP expression, and the fluorescence can be measured in a plate reader. The cells were authenticated with STR profiling, frozen down and these stocks were used in experiments. The HEK293T pGF NF-κB cells were kept in DMEM with 5% FBS and 1% P/S but, when seeded for the assay the medium was changed to DMEM FluoroBrite with 1% dialyzed FBS. All cell culture reagents were purchased from Thermo Fisher Scientific. Compounds were nano-dispensed (Echo acoustic dispenser) in 96-well, black/clear, assay plates (Corning #3904), duplicate plates, in 8-points dose-response curves, 1:2 dilutions, with DMSO compensation (0.3% DMSO). Cells were seeded at 30000 cells/well in medium containing 10 ng/mL of TNF-α (Sigma-Aldrich), except negative control wells which only contained cells in medium. Cells were cultured for 24 hours in a humidified incubator at 37 °C with 5% CO2 after which the GFP fluorescence was measured in a Sense plate reader (Hidex) with ex485/em535. The RFU data from the duplicate plates were combined to calculate % inhibition of NF-κB activation and IC50-values were calculated using XLfit (IDBS). In parallel with the NF-κB assay, a CellTiterGlo (Promega) cell viability assay was run to exclude compounds affecting cell viability. Compounds were nano-dispensed (Echo acoustic dispenser) in assay plates in 11-points dose-response curves, 1:3 dilutions, without DMSO compensation, with duplicates on the same plate. Cells were seeded at 7500 cells/well in 25 µL medium (DMEM FluoroBrite with 1% dialyzed FBS) containing 10 ng/mL TNF-α and cultured for 24 hours, with column 24 containing only culture medium. After equilibration to room temperature, the CellTiterGlo reagents were mixed and 25 µL/well were added to the cell plate. After 2 min mixing of the plate on an orbital shaker, the plate was incubated for 10 min at room temperature followed by luminescence reading in Sense. The cell viability was calculated compared to untreated control wells and the EC50 values were determined in XLfit (IDBS). […]

For data set [2], the system named is HCT116 cells. The experiment in a line: Cancer cell viability assay (resazurin), HCT116. Format: cell-based. As to conditions: two independent experiments; for percentage cell viability: HCT116, 100 μM, 100 µM. The method, then:
Three different cancer cell lines A2780 (ovarian cancer, ECACC 93112519), A549 (lung cancer, ATCC 60150896) and HCT116 (colon cancer, ATCC CCL-247), and one immortalized fibroblast cell line (BJhTERT) as control, were seeded in black/clear 384-well plates (Corning #3764), 50 µL/well, containing 11 concentrations, nano-dispensed, dose-response curves of the test compounds. A2780, HCT116, and HEK293T cell lines were authenticated with STR profiling, frozen down, and these stocks were used in experiments. The A2780 cells were cultured in RPMI 1640, the A549 and BJhTERT cells in DMEM, and the HCT116 cells in McCoys 5 A medium. All media were supplemented with 10% FBS and 1% P/S. All cell culture media, additives, and reagents were purchased from Thermo Fisher Scientific. The cell plates were incubated 72 hours in a humidified incubator at 37 °C with 5% CO2, after which resazurin (Sigma-Aldrich), 10 µL/well, was added to a final concentration of 10 µg/mL. The plates were incubated for 6 hours with resazurin followed by fluorescence readings in a Sense plate reader (Hidex), resorufin protocol (ex 544 nm/em 595 nm). The cell viability was calculated compared to untreated control wells and the EC50 values were determined in XLfit (IDBS).
(The colour change of resazurin is a common sign of viable cells or microbes.)

Data set [3] deals with human OGG1 enzyme (Homo sapiens, UniProt O15527). The experiment in a line: OGG1 glycosylase activity assay (enzyme inhibition, APE1-coupled fluorescence). Format: biochemical.
Sequence of human OGG1 enzyme (O15527 whole entry): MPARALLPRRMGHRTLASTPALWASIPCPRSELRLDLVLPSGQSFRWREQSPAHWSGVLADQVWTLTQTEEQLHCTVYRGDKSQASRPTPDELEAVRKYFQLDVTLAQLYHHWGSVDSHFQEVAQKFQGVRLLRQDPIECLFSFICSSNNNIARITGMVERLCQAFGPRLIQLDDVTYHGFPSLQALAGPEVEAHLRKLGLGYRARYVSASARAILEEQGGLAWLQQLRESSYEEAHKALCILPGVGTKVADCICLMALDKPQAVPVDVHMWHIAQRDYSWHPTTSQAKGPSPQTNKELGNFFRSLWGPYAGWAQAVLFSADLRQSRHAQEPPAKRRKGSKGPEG
Description: “8” signifies 8-oxoA and “FAM” and “Dab” signify fluorescein and dabcyl (TriLink Biotech). Briefly, compounds dissolved in DMSO were dispensed using an Echo 550 (Labcyte), followed by transfer of enzyme and substrate solutions manually with a 16-channel pipette or with a Multidrop (Thermo Scientific). The plates were centrifuged, sealed and incubated at room temperature overnight (15 h) and read the following morning in an Hidex Sense plate reader (Hidex Oy) using a 485-nm filter with a bandwidth of 10 nm for excitation and a 535-nm filter with a bandwidth of 20 nm for emission.
For data set [4], the target named is T1, OGG1-GFP in U2OS cells (Homo sapiens, UniProt O15527).
T1 construct: expressed in transfected cells
T1 sequence (O15527 whole entry): as above
The experiment in a line: Laser microirradiation assay (OGG1-GFP recruitment to DNA damage sites). As to conditions: for OGG1-GFP recruitment to DNA damage sites, intensity normalised to time 0 (Figure3E): single-cell replicate traces. The class given is cell-based.

Data set [5] is described as follows: Plasma protein binding in human plasma (RED). The class given is in vitro ADME. To be noted: plasma (50% plasma, 50% isotonic buffer), pH 7.4, read-out: Protein plasma binding, fu (%). The procedure: Pooled human plasma was provided by Uppsala Academic Hospital and was collected from two donors (non-smoking) (citric acid). In brief, 0.2 mL of the plasma (50% plasma, 50% isotonic buffer) test solution (typically 10 µM final compound concentration) was transferred to the membrane tube in the RED insert (ThermoFisher Scientific). 0.35 ml isotonic phosphate buffer pH 7.4 was added to the other side of the membrane. The 96-well base plate was then sealed with an adhesive plastic film (Scotch Pad) to prevent evaporation. The sample was incubated with rapid rotation (>>900 rpm) on a Kisker rotational incubator at 37 °C for 4 h to achieve equilibrium. Prior to LC-MS/MS analysis the plasma and buffer samples were treated with the addition of Methanol (1:3) containing Warfarin as an internal standard to precipitate proteins. The standard curve was created using the plasma standard. The plate was then sealed, and centrifuged and the supernatant was analyzed by liquid chromatography coupled to triple quadrupole mass spectrometry (LC-MS/MS).

Data set [6] can be described thus: Thermodynamic solubility. The class given is physicochemical. As to conditions: thermodynamic from solid.
The mark [7] stands for this setting: NFκB activation assay, ± SD, read-out: pEC50 (converted).
Setting [8] is: Concentration 2.34e-7, single replicates.
Where [9] appears, read: Concentration 4.69e-7, single replicates.
Setting [10] is: Concentration 9.38e-7, single replicates.
Setting [11] is: Concentration 1.88e-6, single replicates.
The mark [12] stands for this setting: Concentration 3.75e-6, single replicates.
[13] abbreviates: Concentration 7.5e-6, single replicates.
Setting [14] is: Concentration 1.5e-5, single replicates.
[15] abbreviates: Concentration 3e-5, single replicates.

One may read the viability as the share of living cells, or the viability signal relative to a control. Broadly, the IC50 is the point on the concentration scale where inhibition reaches its midpoint. The term thermodynamic solubility denotes the concentration in solution at equilibrium with solid.

Structures are written as SMILES. Converted amounts (≈) assume the structure as drawn. “And” between values parts separate entries of the source, which are not always exact repeats. Equal values may be shown once. Read-outs that look alike come from different tables or passages of the source.

`Nc1nn(-c2ccc(CC(=O)Nc3noc4c3CCCC4)cc2)c2ccccc12` [compound 11]: the EC50 in data set [1] (setting [7]) is 10 µM. In addition, the percentage cell viability in data set [2] is given as 20.29%. Also, in data set [2] (Homo sapiens, HCT-116, HCT116, 100 μM, read-out: percentage cell viability), the viability at 100 µM is 20%.

In the case of `O=C(Nc1ccc(I)cc1)N1CCC(n2c(=O)[nH]c3c(Br)cccc32)CC1` [TH5487, reference compound], in data set [3] (read-out: IC50), the IC50 came to 340 nM. Besides, the “OGG1-GFP recruitment to DNA damage sites, intensity normalised to time 0 (Figure3E)” value is 1.22 (3×) and 1.25 and 1.18 (2×) and 1.31 and 1.24 and 1.32 (2×) and 1.15 and 1.27 and 1.19 (2×) and 1.28 in data set [4] (10uM, time 14 s); 1.24 and 1.28 and 1.23 (2×) and 1.18 (2×) and 1.34 and 1.25 and 1.32 and 1.19 and 1.29 and 1.2 and 1.22 and 1.31 and 1.3 in data set [4] (10uM, time 16 s); 1.25 (2×) and 1.31 (2×) and 1.24 and 1.21 and 1.35 (2×) and 1.26 and 1.18 and 1.2 and 1.3 and 1.22 and 1.23 and 1.33 in data set [4] (10uM, time 18 s); 1.26 and 1.31 (2×) and 1.24 (3×) and 1.2 and 1.35 and 1.29 and 1.37 and 1.16 and 1.19 and 1.27 and 1.36 and 1.33 in data set [4] (10uM, time 20 s); 1.27 and 1.32 and 1.28 (3×) and 1.2 and 1.36 and 1.37 (2×) and 1.18 and 1.22 (2×) and 1.34 and 1.25 and 1.35 in data set [4] (10uM, time 22 s); 1.29 (2×) and 1.32 and 1.25 (2×) and 1.21 and 1.37 (2×) and 1.39 and 1.18 and 1.22 and 1.35 and 1.3 and 1.24 and 1.36 in data set [4] (10uM, time 24 s). Moreover, the “OGG1-GFP recruitment to DNA damage sites, intensity normalised to time 0 (Figure3E)” value in data set [4] (10uM, time 26 s) was 1.29 (2×) and 1.32 and 1.28 and 1.21 and 1.38 (2×) and 1.4 and 1.19 and 1.22. Besides, the “% inhibition of NF-κB activation (Figure3F)” value (shortened to “% inhibition”) in data set [1] (setting [8]) is 18.9% and 16.9% and 37.3% and 20.7% and 19.4% and 19.3%; in data set [1] (setting [9]), 18.1% and 35.6% and 25.7% and 21.2% and 9.2%; in data set [1] (setting [10]), 12.4% and 13.4% and 36.2% and 34.5% and 36.5% and 30%; in data set [1] (setting [11]), 21% and 33.9% and 49.1% and 39.2% and 40.4% and 37.2%; in data set [1] (setting [12]) it was 58.6% and 64.7% and 55% and 52% and 44.1% and 44%; in data set [1] (setting [13]) it was 81.2% and 86.7% and 75.9% and 78.4% and 98.7% and 81.3%. In addition, the “% inhibition” value was 101.6% and 99.3% (2×) and 95.7% and 105.1% and 123.3% in data set [1] (setting [14]); 104.2% and 102% and 99.9% and 101.1% and 123.3% and 102.7% in data set [1] (setting [15]). Moreover, the fraction unbound at 4 h, 10 µM in data set [5] worked out at 0.001. The molecule further showed a thermodynamic solubility in data set [6] of less than 1 µM.

Turning to `Cc1nc(-c2cc(F)c(CC(=O)Nc3noc4c3CCCC4)c(F)c2)c(C)[nH]1` [compound 23], the “OGG1 inhibition, dose-response (Figure2C)” value in data set [3] (Concentration (M) 1.93e-7) was 9.69 and 17.93 and 10.41 and 18.5; in data set [3] (Concentration (M) 3.87e-7) it was 29.24 and 27.63 and 28.59 and 28.11; in data set [3] (Concentration (M) 7.73e-7), 53.6 and 49.32 and 48.44 and 47.84; in data set [3] (Concentration (M) 1.55e-6) it was 59.42 and 67.01 and 59.08 and 66.62; in data set [3] (Concentration (M) 3.09e-6), 78.97 and 77.03 and 76.1 and 78.52; in data set [3] (Concentration (M) 6.19e-6), 89 and 85.95 and 85.06 and 85.7. The “OGG1 inhibition, dose-response (Figure2C)” value was 91.41 and 94.39 and 90.13 and 92.43 in data set [3] (Concentration (M) 1.24e-5); 94.22 and 97.46 and 92.46 and 96.53 in data set [3] (Concentration (M) 2.48e-5); 94.91 and 98.52 and 101.44 and 105.23 in data set [3] (Concentration (M) 4.95e-5); 93.34 and 96.5 and 102.87 and 104.38 in data set [3] (Concentration (M) 9.9e-5). The IC50 in data set [3] (Figure 3B source data, three independent experiments, read-out: IC50 OGG1) is 442 nM and 646 nM and 620 nM; in data set [3] (read-out: IC50) it was 600 nM. Besides, the “increase of inhibitory potency compared to fragment 1” value in data set [3] (ratio of IC50 values) is more than 165 fold. Further, the “OGG1-GFP recruitment to DNA damage sites, intensity normalised to time 0 (Figure3E)” value in data set [4] (10uM, time 14 s) is 1.25 (2×) and 1.24 (4×) and 1.21 and 1.14 and 1.19 (2×) and 1.22 (2×) and 1.23 and 1.26 and 1.2; in data set [4] (10uM, time 16 s), 1.27 (3×) and 1.26 (2×) and 1.29 (2×) and 1.23 (4×) and 1.12 and 1.19 and 1.18 and 1.24; in data set [4] (10uM, time 18 s), 1.27 (2×) and 1.28 (3×) and 1.24 (3×) and 1.15 and 1.21 and 1.19 and 1.25 (3×) and 1.31; in data set [4] (10uM, time 20 s), 1.3 and 1.29 and 1.33 and 1.26 and 1.15 and 1.24 and 1.21 and 1.27 (2×) and 1.28; in data set [4] (50uM, time 14 s), 1.18 (2×) and 1.14 and 1.21 (4×) and 1.2 (3×) and 1.12 and 1.19 (2×) and 1.22 and 1.23; in data set [4] (50uM, time 16 s), 1.19 and 1.14 and 1.22 (4×) and 1.15 and 1.21 (3×) and 1.2 (2×) and 1.24 and 1.25 and 1.23. The “OGG1-GFP recruitment to DNA damage sites, intensity normalised to time 0 (Figure3E)” value in data set [4] (50uM, time 18 s) was 1.2 (3×) and 1.15 (2×) and 1.22 (3×) and 1.21 (2×) and 1.24 (3×) and 1.23 and 1.27. Further, the “Maximum Intensity (OGG1-GFP at damage sites)” value in data set [4] (50uM, single cells, U2OS) was 1.31 and 1.3 and 1.27 and 1.34 and 1.37 and 1.28 and 1.23 and 1.32. Also, the “recruitment of OGG1-GFP to laser-induced DNA damage sites” value in data set [4] (U2OS cells) is listed as “impaired”. The “% inhibition” value in data set [1] (setting [8]) was 12.9% and 24.6% and 2.1%; in data set [1] (setting [9]), 11.9% and 16.7% and -7.9%; in data set [1] (setting [10]), 11% and 6.8% and -9.9%; in data set [1] (setting [11]) it was 11.1% and 26.6% and 2.8%; in data set [1] (setting [12]) it was 21.4% and 46% and -1.3%; in data set [1] (setting [13]) it was 38.5% and 60.8% and 40%. Moreover, the “% inhibition” value in data set [1] (setting [14]) is 56.3% and 70.5% and 50.3%; in data set [1] (setting [15]), 64.4% and 84.7% and 71.9%. In addition, the EC50 was 6.31 µM in data set [1] (setting [7]) and 6.3 µM in data set [1] (inhibition of TNF-α-induced NF-κB activation, read-out: EC50). The percentage cell viability in data set [2] was 61.96% and 97.34%. Also, the fraction unbound at 4 h, 10 µM in data set [5] came out at 0.048. The solubility (thermodynamic) in data set [6] (single replicate) was 16 µM (≈ 6.18 µg/mL).
